Data: patent US4402972A, “Cyclopropane carboxylic acid derivatives” (Roussel Uclaf, priority 1980, dated 1983)

Experiments:
[1] = test system: mixture of spores of Fusarium roseum, Penicillium roquefonti and Aspergilus niger; test: Antifungal activity, adhesive test (3% carboxymethyl starch); assay type: cell-based; conditions: for Growth of Fungus after 48 hours / Growth of Fungus after 8 days: scale of 3 to 0, untreated control 3
Procedure: The antifungal activity of (1R,cis) 2,2-dimethyl-3-[Z-2-(methoxycarbonyl)-ethenyl]-cyclopropane-carboxylic acid was determined in an adhesive test using an aqueous 3% carboxymethyl starch solution. The test compound was dissolved in 1 ml of acetone and 5 ml of an innoculum consisting of a mixture of spores of Fusarium roseum, Penicillium roquefonti and Aspergilus niger were added thereto. The development of fungus after 48 hours and 8 days was compared to an untreated control on a scale of 3 to 0.

[2] = test system: mixture of spores of Geotrichum, Trichosporon and Cephalosporium; test: Anti-fungal test on oils (3% synthetic fluid); assay type: cell-based; conditions: for Anti-fungal growth after 48 hours: control 49 × 10^3 Geo. + 80 × 10^3 Tri. + 11 × 10^3 Cep.
Procedure: A solution of 3% of synthetic fluid was used to test the anti-fungal activity of (1R,cis) 2,2-dimethyl-3-[Z-2-(methoxycarbonyl)-ethenyl]-cyclopropane-carboxylic acid and contamination was effected with 5 ml of an innoculum consisting of a mixture of spores of Geotrichum, Trichosporon and Cephalosporium.

[3] = test system: mixture of spores of Aerobacter aerogenes, Pseudomonas aeruginosa, Escherichia coli, Serratia mancescens and Bacillus subtilis; test: Bactericidal activity (3% carboxymethyl starch in water); assay type: cell-based; conditions: for bacterial population after 48 hours: control 12 × 10^7; for bacterial population after 8 days: control 16 × 10^7
Procedure: The bactericidal activity of (1R,cis) 2,2-dimethyl-3-[Z-2-(methoxycarbonyl)-ethenyl]-cyclopropane-carboxylic acid was determined with a solution of 3% of carboxymethyl starch in water. The test compound was placed in 1 ml of water and 5 ml of an innoculum of a mixture of spores of Aerobacter aerogenes, Pseudomonas aeruginosa, Escherichia coli, Serratia mancescens and Bacillus subtilis were added thereto. The mixture was placed in an oven for 48 hours at 37° C. and then for 6 days at 20° C. The bacterial population ([…]) was determined 48 hours and 8 days by the serum dihibition method and incorporation into broth containing agar.

[4] = test system: Fusarium, Penicillium, Aspergilus, Geotrichum, Trichosporon and Cephalosporium; test: Antifungal activity of the acids (general statement); assay type: cell-based
houseflies [5] = test: Insecticidal activity on houseflies, topical application; assay type: in vivo; conditions: 1 μl acetone solution, dorsal thorax, 4 day old females, 24 hours
Procedure: The test was effected on 4 day old female houseflies which received a topical application of 1 μl of an acetone solution of the test compound on the dorsal thorax with an Arnold micro-manipulator. 50 insects were used for each test and the number of dead insects were determined after 24 hours to calculate the LD50 dose in nanograms (the dose killing 50% of the insects).

[6] = test system: Spodoptera littoralis larvae; test: Activity against Spodoptera littoralis larvae, topical application; assay type: in vivo; conditions: dorsal thorax, fourth stage larvae, 48 hours
Procedure: The test was carried out on larvae of Spodoptera littoralis by applying an acetone solution of the test compound with an Arnold micro-manipulator to the dorsal thorax of the larvae. 10 to 15 larvae were used for each tested dose and the larvae were in the fourth stage (about 10 days old at 24° C. and 65% relative humidity). The larvae were then placed in an artifical medium (Poitout medium) and the number of dead were determined after 48 hours to calculate the LD50 in ng.

[7] = test system: Epilachna varivestris Larvae; test: Activity against Epilachna varivestris larvae, topical application; assay type: in vivo; conditions: for LD50: topical, second last stage larvae, 72 hours
Procedure: The test was carried out by topical application of the test compounds as in test B and the larvae of Epilachna variestris were in second last stage. The treated larvae were then placed on bean plants and the number of dead was determined after 72 hours to calculate the LD50 in ng.

houseflies [8] = test: Knock-down activity on houseflies, direct spray in Kearns and March chamber; assay type: in vivo; conditions: for KT50: 0.25 g/l solution, 2 ml, direct spray, 4 day old females
Procedure: 50 4 day old female houseflies per dose were directly sprayed in a Kearns and March chamber with a solution of the 0.25 g/l of the test compound in 2 ml of a mixture of 5% of acetone and Isopar L (petroleum solvent) in one second.

insects = test: Insecticidal activity (general statement); conditions: in vivo
[9] = test system: Boophilus microplus larvae (Mexico sensitive); test: Activity against Boophilus microplus larvae, Mexico sensitive strain; assay type: in vivo
Procedure: (§1) A 10% emulsifiable concentrate was prepared by dissolving the test compound of Example 6 in a mixture of dimethylformamide, emulsifiers and Arcopal and the concentrate was diluted with water to obtain solutions of 10,5 and 1 ppm of active compound. The different solutions were sprayed by a spraying tower on to larvae of tropical cattle ticks of the Boophilus microplus type (Mexico sensitive and DDT resistant strains) and the number of dead and live larvae was determined after 24 hours.

[10] = test system: Boophilus microplus larvae (DDT resistant); test: Activity against Boophilus microplus larvae, DDT resistant strain; assay type: in vivo
Procedure: as §1

[11] = test system: Rhipicephalus appendiculatus; test: Activity against Rhipicephalus appendiculatus ticks; assay type: in vivo
Procedure: as §1
(§2) The test procedure of F was repeated with the compound of Example 6 at doses of 100, 10 and 1 ppm using 10 ticks of Rhipicephalus appendiculatus or Amblyomma hebraeum per test as above.

Amblyomma hebraeum = test: Activity against Amblyomma hebraeum ticks; assay type: in vivo
Procedure: as §1, §2

[12] = test system: Boophilus microplus ticks (Mexico sensitive strain); test: Inhibition of reproduction of Boophilus microplus ticks; assay type: in vivo
Procedure: Female Boophilus microplus ticks of the Mexico sensitive strain ready to lay eggs were immersed for 5 minutes in solutions of 100, 50, 25, 12.50 and 6.25 ppm of the compound of Example 6 and then they were placed in a heated enclosure to lay their eggs.

[13] = Mexico sensitive and DDT resistant strains together
[14] = Rhipicephalus microplus, in Bos taurus, 1 ppm, 24 hours
[15] = Rhipicephalus microplus, in Bos taurus, 5 ppm, 24 hours
[16] = Rhipicephalus microplus, in Bos taurus, 10 ppm, 24 hours

## COC(=O)/C=C\[C@H]1[C@@H](C(=O)O)C1(C)C (relative stereo) [(1R,cis) 2,2-dimethyl-3-[(Z)-2-(methoxycarbonyl)-ethenyl]-cyclopropane-carboxylic acid]
[1]
  anti-fungal activity (in words): good anti-fungal activity
[1]; 0.01 % concentration
  Growth of Fungus after 48 hours: 3
  Growth of Fungus after 8 days: 3
[1]; 0.05 % concentration
  Growth of Fungus after 48 hours: 0
  Growth of Fungus after 8 days: 0
[2]
  antifungal activity on oils (in words): good antifungal activity
[2]; 0.5 % concentration
  Anti-fungal growth after 48 hours: 0
[2]; 1 % concentration
  Anti-fungal growth after 48 hours: 0
[3]
  bactericidal activity (in words): good bactericidal activity
[3]; 0.025%
  bacterial population after 48 hours: 10 × 10^4 colorless ml
  bacterial population after 8 days: 16 × 10^6 colorless ml
[3]; 0.05%
  bacterial population after 48 hours: 52 × 10^2 colorless ml
  bacterial population after 8 days: 68 × 10^4 colorless ml
[4]
  fungicidal properties / antifungal activity (in words): interesting fungicidal properties

## COC(=O)/C=C\[C@H]1[C@@H](C(=O)O[C@H](C#N)c2cccc(Oc3ccccc3)c2)C1(C)C [Example 1, (S)α-cyano-3-phenoxy-benzyl (1R,cis) 2,2-dimethyl-3-[Z-2-methoxycarbonyl-ethenyl]-cyclopropane-carboxylate]
Houseflies [5]
  LD50: 7.128 ng
[6]
  LD50: 3.602 ng
[7]
  LD50: 8.290 ng
Houseflies [8]
  KT50: 1.226 min
Houseflies [8]; in vivo
  knock-down activity (in words): remarkable knock-down activity
insects
  insecticidal activity (in words): particularly remarkable insecticidal activity

## CCOC(=O)/C=C\[C@H]1[C@@H](C(=O)O[C@H](C#N)c2cccc(Oc3ccccc3)c2)C1(C)C [Example 3, (S)α-cyano-3-phenoxy-benzyl (1R,cis) 2,2-dimethyl-3-[Z-2-(ethoxycarbonyl)-ethenyl]-cyclopropane-carboxylate]
Houseflies [5]
  LD50: 3.494 ng
[6]
  LD50: 3.260 ng
[7]
  LD50: 8.850 ng
Houseflies [8]
  KT50: 3.340 min

## CC(C)OC(=O)/C=C\[C@H]1[C@@H](C(=O)O[C@H](C#N)c2cccc(Oc3ccccc3)c2)C1(C)C [Example 5, (S)α-cyano-3-phenoxy-benzyl (1R,cis) 2,2-dimethyl-3-[Z-2-(isopropoxycarbonyl)-ethenyl]-cyclopropane-carboxylate]
Houseflies [5]
  LD50: 2.781 ng
[6]
  LD50: 7.920 ng
[7]
  LD50: 3.705 ng
Houseflies [8]
  KT50: 4.390 min

## CC(C)(C)OC(=O)/C=C\[C@H]1[C@@H](C(=O)O[C@H](C#N)c2cccc(Oc3ccccc3)c2)C1(C)C [Example 6, (S)α-cyano-3-phenoxy-benzyl (1R,cis) 2,2-dimethyl-3-[Z-2-(tert.-butoxycarbonyl)-ethenyl]-cyclopropane-carboxylate]
[7]; in vivo
  insecticidal activity against Epilachna larvae (in words): good insecticidal activity
[7]
  LD50: 0.446 ng
[9]; [13]
  activity against Boophilus microplus larvae, Mexico sensitive (in words): remarkable activity
[9]; [14]
  mortality at 1 ppm: 100%
[9]; [15]
  mortality at 5 ppm: 100%
[9]; [16]
  mortality at 10 ppm: 100%
[10]; [13]
  activity against Boophilus microplus larvae, DDT resistant (in words): remarkable activity
[10]; [14]
  mortality at 1 ppm: 100%
[10]; [15]
  mortality at 5 ppm: 100%
[10]; [16]
  mortality at 10 ppm: 100%
[11]; Rhipicephalus appendiculatus, 1 ppm
  mortality at 1 ppm: 100%
[11]; Rhipicephalus appendiculatus, 10 ppm
  mortality at 10 ppm: 100%
[11]; Rhipicephalus appendiculatus, 100 ppm
  mortality at 100 ppm: 100%
[11]; in vivo
  tickicide activity against Rhipicephalus appendiculatus (in words): excellent tickicide activity
Amblyomma hebraeum; Amblyomma hebraeum, 1 ppm
  mortality at 1 ppm: 70%
Amblyomma hebraeum; Amblyomma hebraeum, 10 ppm
  mortality at 10 ppm: 100%
Amblyomma hebraeum; Amblyomma hebraeum, 100 ppm
  mortality at 100 ppm: 100%
Amblyomma hebraeum; in vivo
  tickicide activity against Amblyomma hebraeum (in words): excellent tickicide activity
[12]; Rhipicephalus microplus, 5 min, 6.25 ppm, 5 minutes immersion
  inhibition at 6.25 ppm: 100%
[12]; Rhipicephalus microplus, 5 min, 12.50 ppm, 5 minutes immersion
  inhibition at 12.5 ppm: 100%
[12]; Rhipicephalus microplus, 5 min, 25 ppm, 5 minutes immersion
  inhibition at 25 ppm: 100%
[12]; Rhipicephalus microplus, 5 min, 50 ppm, 5 minutes immersion
  inhibition at 50 ppm: 100%
[12]; Rhipicephalus microplus, 5 min, 100 ppm, 5 minutes immersion
  inhibition at 100 ppm: 100%
[12]; in vivo
  tickicide activity, reproduction test (in words): remarkable tickicide activity
